The subject of series [1] is human ovarian cancer cell line SKOV3. In words: Action on SKOV3 cell-2: 3D (deacylated gellan gum) and 2D culture, EGF medium, ATP assay (Experimental Example 3). To be noted: for viability at 1 µM / viability at 5 µM / viability at 10 µM / viability at 20 µM: Homo sapiens, SK-OV-3, 96 h, 4 days, compound non-addition = 100%.
Method: According to the method of patent document 1 (WO 2014/017513), a composition of McCoy's 5a medium (manufactured by Sigma-Aldrich) containing 0.015% (w/v) deacylated gellan gum (KELCOGEL CG-LA, manufactured by Sansho Co., Ltd.) and 15% (v/v) FBS, 30 ng/mL human EGF (manufactured by PEPROTECH) was prepared using FCeM-series Preparation Kit (manufactured by Wako Pure Chemical Industries, Ltd.). In a single layer culture, a non-addition medium composition not containing deacylated gellan gum was prepared. Then, human ovarian cancer cell line SKOV3 (manufactured by DS PHARMA BIO MEDICAL) was suspended in the above-mentioned medium composition added with deacylated gellan gum, and dispensed into the wells of a 384 well flat bottom Ultr-low Attachment surface microplate (manufactured by Corning Incorporated, #3827) at 1000 cells/36 μL/well (three-dimensional culture (3D)). In a single layer culture (2D), human ovarian cancer cell line SKOV3 was suspended in the above-mentioned medium composition not containing deacylated gellan gum, and dispensed into the wells of a 384 well flat bottom microplate (manufactured by Corning Incorporated, #3712) at 400 cells/36 μL per well. After dispensing, the compound to be used in the present invention dissolved in dimethyl sulfoxide (DMSO) was added by 4 μL each at a final concentration of 0, 1, 5, 10, 20 μM, and continuously cultured for 4 days. Each plate was cultured in a standing state in a CO2 incubator (37° C., 5% CO2) for 4 days. An ATP reagent (40 μL) (CellTiter-Glo (registered trade mark) Luminescent Cell Viability Assay, manufactured by Promega) was added to the culture medium on day 4, and the mixture was stirred by a plateshaker (manufactured by AS ONE Corporation, Micro plate mixer NS-P) at room temperature for 15 min. The luminescence intensity (RLU value) was measured by EnSpire (manufactured by Perkin Elmer) and the luminescence value of the medium alone was subtracted to measure the number of viable cells.
Series [2] deals with Human umbilical vein endothelial cells. In words: Vascular endothelial cell, 3D culture, ATP assay (Experimental Example 14). In kind it is cell-based. The following applies: human umbilical vein endothelial cells under three-dimensional conditions. Here is the method: Human umbilical vein endothelial cells (manufactured by PromoCell) were precultured in Endothelial Cell proliferation Medium (manufactured by PromoCell) medium (single layer culture). The above-mentioned cells in the logarithmic growth phase were washed with PBS, DetachKit (manufactured by PromoCell) was added, and adherent cells were detached by incubating at 37° C. for 3 min. The medium was added and the mixture was centrifuged and resuspended in the same medium.
The aforementioned cells were suspended in respective deacylated gellan gum-containing or not containing media (deacylated gellan gum concentration was 0.015 w/v %), and seeded in a 96 well low attachment U-bottom plate (manufactured by Corning, #4520, deacylated gellan gum-free medium), or a low attachment flat bottom plate (manufactured by Corning, #3474, deacylated gellan gum-containing medium) at a cell concentration of 700-2000 cells/90 μL/well (all 3D culture). […] The amount of each compound solution to be added was 10 μL/well. As a control, a DMSO solution dissolved in a medium was added (DMSO final concentration 0.1%).

In series [3] the test system is Chinese hamster ovary-derived cell line CHO-K1. In words: Animal cell lines, 3D culture, ATP assay (Experimental Example 15). In kind it is cell-based. The following applies: 4 days; for viability at 5 µM / viability at 10 µM: Cricetulus griseus, CHO-K1, 96 h. From the text:
(§1) Various animal cell lines were precultured (single layer culture) as follows in respective media. Chinese hamster ovary-derived cell line CHO-K1 (manufactured by DS PHARMA BIO MEDICAL, 10% fetal bovine serum (FBS, manufactured by Corning)-containing Ham's F-12 medium (manufactured by Fujifilm Wako Pure Chemical Corporation)), Cercopithecus aethiops kidney epithelium-derived cell line Vero (purchased from JCRB cell bank, 5% FBS-containing Medium 199 medium (manufactured by Life Technologies)). The above-mentioned cells in the logarithmic growth phase were washed with PBS, a 0.25 w/v % trypsin-1 mmol/L EDTA (ethylenediaminetetraacetic acid) solution (manufactured by Fujifilm Wako Pure Chemical Corporation) was added, and adherent cells were detached by incubating at 37° C. for 3 min. Each medium was added and the mixture was centrifuged and resuspended in the same medium.
(§2) The aforementioned various animal cells were suspended in respective deacylated gellan gum-containing or not containing media (deacylated gellan gum concentration was 0.02 w/v % in Ham's F-12 medium, 0.015 w/v % in Medium 199 medium), and seeded in a 96 well low attachment U-bottom plate (manufactured by Corning, #4520, deacylated gellan gum-free medium), or a low attachment flat bottom plate (manufactured by Corning, #3474, deacylated gellan gum-containing medium) at a cell concentration of 700-2000 cells/90 μL/well (all 3D culture). […] The amount of each compound solution to be added was […]. As a control, a DMSO solution dissolved in a medium was added (DMSO final concentration 0.1%). […] When compared with the compound non-addition (control), one showing a value of not more than 119% as -, one showing a value of not less than 120% as ◯, and one showing a value of not less than 150% as ⊚ are shown in the twenty-third table and the twenty-fourth table.

For series [4], the system named is Cercopithecus aethiops kidney epithelium-derived cell line Vero. The series is described as above. In kind it is cell-based. To be noted: for number of viable cells (RLU), relative value to control (100%): 4 days.
Excerpt: as §1, §2

For series [5], the system named is hiPS cell line 253G1. The series is described as follows: Human pluripotent stem cell (hiPS cell), EZSPHERE plate, ATP assay (Experimental Example 13). In kind it is cell-based. The following applies: for relative value (%): hiPS 253G1, EZSPHERE plate, 5 μM, 3 days, RLU of DMSO addition = 100%; for proliferation activity (in words): human pluripotent stem cells under three-dimensional conditions. Here is the method: hiPS cell line 253G1 (purchased from RIKEN) was cultured on a dish coated with vitronectin VTN-N (manufactured by Thermo Fisher Scientific) using mTeSR1 (registered trade mark) medium (manufactured by STEMCELL Technologies). The above-mentioned cells in the proliferation phase were washed with PBS (manufactured by Fujifilm Corporation Wako Pure Chemical Industries, Ltd.), TrypLE Select (registered trade mark) (manufactured by Thermo Fisher Scientific) was added and the mixture was incubated at 37° C. for 3 min to remove the detaching solution. The medium was added and the cells were detached by pipetting. Thereafter, the supernatant was removed by centrifugation.
The aforementioned cells were suspended in a medium containing 10 μM Y-27632 (manufactured by Fujifilm Corporation Wako Pure Chemical Industries, Ltd.) and seeded in a 96-well EZSPHERE plate (manufactured by AGC TECHNO GLASS CO., LTD., #4860-900) at a cell concentration of 10000 cells/200 μL/well. […] The amount of each compound solution to be added was 2 μL/well. As a control, a DMSO solution dissolved in a medium was added (DMSO final concentration 0.05%). The medium was exchanged by half the volume every day, and each compound solution was also added to make the compound concentration constant.

The mark [6] stands for this setting: read-out: relative value of RLU (number of viable cells), 2D single layer culture.
Setting [7] is: read-out: relative value of RLU (number of viable cells), 3D culture (deacylated gellan gum).
Where [8] appears, read: single layer culture (2D) of SKOV3 cells.
Setting [9] is: three-dimensional culture (3D) of SKOV3 cells.
Setting [10] is: CHO-K1, low attachment flat bottom plate (deacylated gellan gum-containing medium), 10 μM.
The mark [11] stands for this setting: low attachment U-bottom plate, 5 μM.
Setting [12] is: low attachment U-bottom plate, 10 μM.
Where [13] appears, read: low attachment flat bottom plate (deacylated gellan gum-containing medium), 10 μM.

Like-named read-outs stand apart in the source and are kept apart here. Bounds are passed on as bounds.

`CC/C(=N\NC(=O)CNc1cccc(O)c1)c1ccc(O)c(C)c1O` [k-1:D-1]: the values for the viability at 1 µM in series [1] (setting [6]) and in series [1] (setting [7]) were 95% and 140%, respectively. Besides, the viability at 5 µM in series [1] (setting [6]) is 102%; in series [1] (setting [7]) it was 174%; in series [3] (CHO-K1, low attachment U-bottom plate, 5 μM, read-out: number of viable cells (RLU), relative value to control (100%)) it was under 119%. The viability at 10 µM was 98% in series [1] (setting [6]); 168% in series [1] (setting [7]); under 119% in series [3] (CHO-K1, low attachment U-bottom plate, 10 μM, read-out: number of viable cells (RLU), relative value to control (100%)). The viability at 20 µM in series [1] (setting [6]) turned out to be 83%; in series [1] (setting [7]) it was 136%. The “cell proliferation promoting effect (in words)” value is listed as “a favorable cell proliferation promoting effect was not observed” in series [1] (setting [8]) and “exhibited cell proliferation promoting effect at a wide concentration range” in series [1] (setting [9]). For the same molecule, the “proliferation activity (in words)” value is “promoted proliferation activity in human umbilical vein endothelial cells” in series [2] and “promoted proliferation activity in human pluripotent stem cells” in series [5]. In addition, the “number of viable cells (RLU), relative value to control (100%)” value in series [3] (CHO-K1, low attachment flat bottom plate (deacylated gellan gum-containing medium), 5 μM) is listed as “⊙”; in series [3] (setting [10]), “⊙”; in series [4] (setting [11]) it was “⊙”; in series [4] (setting [12]), “⊙”; in series [4] (low attachment flat bottom plate (deacylated gellan gum-containing medium), 5 μM), “⊙”; in series [4] (setting [13]), “⊙”. In addition, in series [5], the “relative value (%)” value is reported as 207%.

`CC/C(=N\NC(=O)NCc1cccc(O)c1)c1ccc(O)c(C)c1O` [k-1:J-1]: the values for the viability at 1 µM in series [1] (setting [6]) and in series [1] (setting [7]) were 93% and 116%, respectively. Further, the viability at 5 µM in series [1] (setting [6]) was 96%; in series [1] (setting [7]), 170%; in series [3] (read-out: number of viable cells (RLU), relative value to control (100%), CHO-K1, low attachment U-bottom plate, 5 μM), under 119%; in series [3] (read-out: number of viable cells (RLU), relative value to control (100%), CHO-K1, low attachment flat bottom plate (deacylated gellan gum-containing medium), 5 μM), 120 to 150%; in series [4] (Chlorocebus sabaeus, 96 h, read-out: number of viable cells (RLU), relative value to control (100%)), 120 to 150%. In addition, the viability at 10 µM in series [1] (setting [6]) is 97%; in series [1] (setting [7]), 186%; in series [3] (read-out: number of viable cells (RLU), relative value to control (100%), CHO-K1, low attachment U-bottom plate, 10 μM), under 119%. In addition, the figures for the viability at 20 µM in series [1] (setting [6]) and in series [1] (setting [7]) were 102% and 173%, respectively. The entries for the “cell proliferation promoting effect (in words)” value in series [1] (setting [8]) and in series [1] (setting [9]) were “a favorable cell proliferation promoting effect was not observed” and “exhibited cell proliferation promoting effect at a wide concentration range”, respectively. The “proliferation activity (in words)” value in series [2] is given as “promoted proliferation activity in human umbilical vein endothelial cells”; in series [5], “promoted proliferation activity in human pluripotent stem cells”. Also, the “number of viable cells (RLU), relative value to control (100%)” value in series [3] (setting [10]), in series [4] (setting [11]), in series [4] (setting [12]) and in series [4] (setting [13]) was “⊙” throughout. Moreover, the “relative value (%)” value in series [5] amounted to 227%.

The values above are taken from patent US20200165194A1, “ADDITIVE COMPOSITION FOR CULTURE MEDIUM, ADDITIVE COMPOUND FOR CULTURE MEDIUM, AND METHOD FOR CULTURE OF CELLS OR TISSUE USING SAME” (NISSAN CHEMICAL CORPORATION, priority 2017, published 2020).
